Laboratory results as given in patent publication EP0326331B1, “Substituted quinolines and cinnolines” (Dow AgroSciences LLC, priority 1988, dated 1989).
Where two headings read alike, the source gives them in different places.

Columns and labels:
Assay type in all cases: in vivo
[1] = tested on: Puccinia recondita tritici (leaf rust); assay: Test 1 greenhouse foliar spray screen, leaf rust on wheat; settings: disease control rating, foliar spray on wheat, 400 ppm (+++ at 100 ppm)
[2] = tested on: Twospotted spider mites (Tetranychus urticae Koch); assay: Mite/insect screen, SM; settings: for mortality at 200 ppm: Tetranychus urticae, read-out: SM RESULTS %
How it was run: (§1)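 Foliar spray to runoff (10 psi), 1 h drying; aqueous dilutions from acetone/alcohol emulsifier stock. Mortality (%) after standard exposure.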

[3] = tested on: Venturia inaequalis (apple scab); assay: Test 1 greenhouse foliar spray screen, apple scab on apple seedling; settings: disease control rating, foliar spray on apple seedling, 400 ppm (+++ at 100 ppm)
[4] = tested on: southern armyworm (Spodopetra eridania Cramer); assay: Mite/insect screen, SAW; settings: Spodoptera eridania, read-out: SAW RESULTS %
How it was run: as §1

[5] = tested on: Pseudoperonospora cubensis (downy mildew); assay: Test 1 greenhouse foliar spray screen, downy mildew on squash; settings: disease control rating, foliar spray on squash, 400 ppm (+++ at 100 ppm)
[6] = tested on: melon aphids (Aphis gossypii Glover); assay: Mite/insect screen, MA; settings: for mortality at 200 ppm: Aphis gossypii, read-out: MA RESULTS %
How it was run: as §1

[7] = tested on: Cercospora beticola (leaf spot); assay: Test 1 greenhouse foliar spray screen, leaf spot on sugar beet; settings: disease control rating, foliar spray on sugar beet, 400 ppm (+++ at 100 ppm)
corn rootworm = assay: Mite/insect screen, CRW; settings: for mortality at 12 ppm: read-out: CRW RESULTS %
How it was run: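 Following dissolution in equal parts acetone and alcohol with 23 g/L and 13 g/L emulsifier blends and dilution with water, test solutions were scored for percent mortality at the end of standard exposures.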

[8] = tested on: Septoria tritici (leaf blotch); assay: Test 1 greenhouse foliar spray screen, leaf blotch on wheat; settings: disease control rating, foliar spray on wheat, 400 ppm (+++ at 100 ppm)
[9] = tested on: Pyricularia oryzae (rice blast); assay: whole plant or invertebrate; settings: disease control rating, foliar spray on rice, 400 ppm (+++ at 100 ppm)
[10] = tested on: Erysiphe graminis tritici (powdery mildew); assay: Test 1 greenhouse foliar spray screen, powdery mildew on wheat; settings: disease control rating, foliar spray on wheat, 400 ppm (+++ at 100 ppm)
[11] = tested on: Botrytis cinerea (gray mold); assay: Test 1 greenhouse foliar spray screen, gray mold on grape berries; settings: disease control rating, spray on grape berries, 400 ppm (+++ at 100 ppm)
[12] = percent mortality, SAW, SM & MA RATE 200 PPM
[13] = percent mortality, CRW RATE 12.00 PPM

COc1cc(CCNc2ccnc3ccccc23)cc(OC)c1 [Example 67, N-[2-(3,5-dimethoxyphenyl)ethyl]-4-quinolinamine]
LEAF RUST [1]: + (20-89% control at 400 ppm) | mortality at 200 ppm [2, 12]: 0% | APPL SCAB [3]: - (0-19% control at 400 ppm) | mortality at 200 ppm [4, 12]: 0% | DOWN MDEW [5]: ++ (90-100% control at 400 ppm) | mortality at 200 ppm [6, 12]: 0% | LEAF SPOT [7]: + (20-89% control at 400 ppm) | mortality at 12 ppm (corn rootworm; [13]): 0% | LEAF BLOT [8]: - (0-19% control at 400 ppm) | RICE BLAST [9]: + (20-89% control at 400 ppm) | POWD MDEW [10]: - (0-19% control at 400 ppm) | GRAY MOLD [11]: - (0-19% control at 400 ppm)

COc1ccccc1CCNc1ccnc2c(F)cccc12 [Example 68, 8-fluoro-N-[2-(2-methoxyphenyl)ethyl]-4-quinolinamine]
LEAF RUST [1]: +++ (90-100% control at 100 ppm) | mortality at 200 ppm [2, 12]: 0% | APPL SCAB [3]: - (0-19% control at 400 ppm) | mortality at 200 ppm [4, 12]: 0% | DOWN MDEW [5]: ++ (90-100% control at 400 ppm) | mortality at 200 ppm [6, 12]: 0% | LEAF SPOT [7]: - (0-19% control at 400 ppm) | mortality at 12 ppm (corn rootworm; [13]): 0% | LEAF BLOT [8]: +++ (90-100% control at 100 ppm) | RICE BLAST [9]: + (20-89% control at 400 ppm) | POWD MDEW [10]: + (20-89% control at 400 ppm) | GRAY MOLD [11]: - (0-19% control at 400 ppm)

Clc1cnc2ccccc2c1NCC(Cl)c1ccccc1 (stereo not drawn) [Example 69, 3-chloro-N-(2-chloro-2-phenylethyl)-4-quinolinamine]
LEAF RUST [1]: + (20-89% control at 400 ppm) | mortality at 200 ppm [2]: 0% | APPL SCAB [3]: - (0-19% control at 400 ppm) | mortality at 200 ppm [4]: 0% | DOWN MDEW [5]: +++ (90-100% control at 100 ppm) | mortality at 200 ppm [6]: 0% | LEAF SPOT [7]: - (0-19% control at 400 ppm) | mortality at 12 ppm (corn rootworm): 0% | LEAF BLOT [8]: - (0-19% control at 400 ppm) | RICE BLAST [9]: + (20-89% control at 400 ppm) | POWD MDEW [10]: + (20-89% control at 400 ppm) | GRAY MOLD [11]: - (0-19% control at 400 ppm)

FC(F)(F)c1cc(C(F)(F)F)c2c(NCCc3ccccc3)ccnc2c1 [Example 70, N-(2-phenylethyl)-5,7-bis-(trifluoromethyl)-4-quinolinamine]
LEAF RUST [1]: + (20-89% control at 400 ppm) | mortality at 200 ppm [2, 12]: 0% | APPL SCAB [3]: - (0-19% control at 400 ppm) | mortality at 200 ppm [4, 12]: 0% | DOWN MDEW [5]: - (0-19% control at 400 ppm) | mortality at 200 ppm [6, 12]: 0% | LEAF SPOT [7]: - (0-19% control at 400 ppm) | mortality at 12 ppm (corn rootworm; [13]): 0% | LEAF BLOT [8]: - (0-19% control at 400 ppm) | RICE BLAST [9]: + (20-89% control at 400 ppm) | POWD MDEW [10]: +++ (90-100% control at 100 ppm) | GRAY MOLD [11]: - (0-19% control at 400 ppm)

OCc1cnc2c(F)cccc2c1NCCc1ccccc1 [Example 73, 8-fluoro-4-[(2-phenylethyl)amino]-3-quinolinemethanol]
LEAF RUST [1]: - (0-19% control at 400 ppm) | mortality at 200 ppm [2, 12]: 0% | APPL SCAB [3]: - (0-19% control at 400 ppm) | mortality at 200 ppm [4, 12]: 0% | DOWN MDEW [5]: ++ (90-100% control at 400 ppm) | mortality at 200 ppm [6, 12]: 0% | LEAF SPOT [7]: - (0-19% control at 400 ppm) | mortality at 12 ppm (corn rootworm; [13]): 0% | LEAF BLOT [8]: - (0-19% control at 400 ppm) | RICE BLAST [9]: + (20-89% control at 400 ppm) | POWD MDEW [10]: - (0-19% control at 400 ppm) | GRAY MOLD [11]: - (0-19% control at 400 ppm)

Fc1cccc2c(NCCc3ccc(Cl)c(Cl)c3)ccnc12 [Example 75, N-[2-(3,4-dichlorophenyl)ethyl]-8-fluoro-4-quinolinamine]
LEAF RUST [1]: ++ (90-100% control at 400 ppm) | mortality at 200 ppm [2, 12]: 0% | APPL SCAB [3]: - (0-19% control at 400 ppm) | mortality at 200 ppm [4, 12]: 0% | DOWN MDEW [5]: +++ (90-100% control at 100 ppm) | mortality at 200 ppm [6, 12]: 0% | LEAF SPOT [7]: - (0-19% control at 400 ppm) | mortality at 12 ppm (corn rootworm; [13]): 0% | LEAF BLOT [8]: + (20-89% control at 400 ppm) | RICE BLAST [9]: + (20-89% control at 400 ppm) | POWD MDEW [10]: + (20-89% control at 400 ppm) | GRAY MOLD [11]: - (0-19% control at 400 ppm)

CC(CNc1ccnc2c(F)cccc12)c1ccccc1 (stereo not drawn) [Example 77, 8-fluoro-N-(2-phenylpropyl)-4-quinolinamine]
LEAF RUST [1]: ++ (90-100% control at 400 ppm) | mortality at 200 ppm [2, 12]: 0% | APPL SCAB [3]: + (20-89% control at 400 ppm) | mortality at 200 ppm [4, 12]: 0% | DOWN MDEW [5]: +++ (90-100% control at 100 ppm) | mortality at 200 ppm [6, 12]: 0% | LEAF SPOT [7]: - (0-19% control at 400 ppm) | mortality at 12 ppm (corn rootworm; [13]): 0% | LEAF BLOT [8]: - (0-19% control at 400 ppm) | RICE BLAST [9]: + (20-89% control at 400 ppm) | POWD MDEW [10]: + (20-89% control at 400 ppm) | GRAY MOLD [11]: - (0-19% control at 400 ppm)

Fc1ccc(CCNc2ccnc3c(F)cccc23)cc1 [Example 78, 8-fluoro-N-[2-(4-fluorophenyl)ethyl]-4-quinolinamine]
LEAF RUST [1]: +++ (90-100% control at 100 ppm) | mortality at 200 ppm [2, 12]: 0% | SM RESULTS % [2, 12]: 0% | APPL SCAB [3]: - (0-19% control at 400 ppm) | mortality at 200 ppm [4, 12]: 20% | DOWN MDEW [5]: +++ (90-100% control at 100 ppm) | mortality at 200 ppm [6, 12]: 0% | MA RESULTS % [6, 12]: 0% | LEAF SPOT [7]: +++ (90-100% control at 100 ppm) | CRW RESULTS % (corn rootworm; [13]): 0% | mortality at 12 ppm (corn rootworm; [13]): 0% | LEAF BLOT [8]: + (20-89% control at 400 ppm) | RICE BLAST [9]: ++ (90-100% control at 400 ppm) | POWD MDEW [10]: + (20-89% control at 400 ppm) | GRAY MOLD [11]: - (0-19% control at 400 ppm)
